Publication PMC8965563, “PaP1, a Broad-Spectrum Lysin-Derived Cationic Peptide to Treat Polymicrobial Skin Infections” (Frontiers in Microbiology, 2022)
Read-outs that look alike come from different tables or passages of the source.

Assays:
[1] = test system: S. aureus strain NRS384 (MRSA); assay: Murine burn wound infection model, prophylactic; assay type: in vivo, Staphylococcus aureus; details: monotherapy: 1% (wt/vol) PaP1, or 0.02% or 0.2% (wt/vol) mupirocin, topical in diH2O, 1 h before and 2 h after infection with 10^6 CFU; female CD1 mice, third-degree burns; counts 3 h post-infection; control ~10^6 CFU/g tissue; geometric mean
[2] = test system: P. aeruginosa strain PAO1; details: 20 mM Tris–HCl, pH 7.2, 1 h, 37°C, log-phase bacteria ~10^5–10^6 CFU/ml, limit of detection 10 CFU/ml, triplicate experiments
[3] = peptide 10 μg/ml, serial dilution and plating

Question: C/C(=C\C(=O)OCCCCCCCCC(=O)O)C[C@@H]1OC[C@H](C[C@@H]2O[C@H]2[C@@H](C)[C@H](C)O)[C@@H](O)[C@H]1O [mupirocin] was tested. Which “reduction of MRSA viability vs untreated control” value [1] did it give?
Answer: The value was 1.1–1.2 log10-fold.

Question: Which “reduction of bacterial viability (log10-fold kill)” value (shortened to “reduction … (log10-fold kill)”) [2, 3] does the source give for “NAGDYAGAAEQFLRWNKAGGKVLPGLVRRRA [PaP1-2]” here?
Answer: Its value is 1.2 log10-fold.

Question: How did the “reduction … (log10-fold kill)” value ([2]; peptide 5 μg/ml, plating) turn out when “NAGDYAGAAEQFLRWNKAGGKVLPGLVRRRASERELFLGAA [PaP1-1]” was run?
Answer: Its value is “ineffective”.

Question: And the “reduction … (log10-fold kill)” value [2, 3]?
Answer: The value was “ineffective”.

Question: How did the “reduction … (log10-fold kill)” value ([2]; peptide 5 μg/ml, plating) turn out when “NAGDYAGAAEQFLRWNKAGGKVLPGLVRRRK [PaP1-3]” was run?
Answer: Its value is 2.4 log10-fold.

Question: And the “reduction … (log10-fold kill)” value [2, 3]?
Answer: Its value is “below the limit of detection”.

Question: How did the “reduction … (log10-fold kill)” value [2, 3] turn out when “QYCANDRVGNLWVEAQEGRKPLRSSAKFKGGAQRRSGLA [PaP1-6]” was run?
Answer: Its value is “retains bactericidal activity”.
